Test results: patent publication US20140227208A1, “COSMETIC COMPOSITIONS CONTAINING SUBSTITUTED AZOLE AND METHODS FOR ALLEVIATING MECHANICALLY-INDUCED SKIN INFLAMMATION” (The Procter & Gamble Company, priority 2013, published 2014)
Read-outs that look alike come from different tables or passages of the source.

Key:
[1] = system: ATRA 4-hydroxylase activity (CYP) of pig liver microsomes; assay: In vitro ATRA 4-hydroxylase (CYP) inhibition assay using pig liver microsomes; details: for IC50: 90 min
Description: Cytochrome P450 is a large and diverse group of enzymes that catalyze the oxidation of organic substances. […] Applicant evaluated the potential RAMBA activity of several azoles using pig liver microsomes, a rich source of CYP activity, comprising many different CYP 450 isoforms. […] As understanding in this area has progressed, a more specific CYP inhibition assay can be used to provide better predictivity of activity in human skin. Nevertheless, this assay may still be used as a general predictor of overall CYP activity.
Microsomal preparation: One lobe of fresh pig liver was obtained at the time of slaughter from a food-processing company and immediately placed in ice cold 15 mM KH2PO4/250 mM sucrose (pH 7.4) and kept on ice during transportation. A 10 g sample of liver was minced and homogenized in 30 mls of homogenization buffer (15 mM KH2PO4/250 mM sucrose) using a Tekmar homoginizer by pulsing 3 times 20 second pulses. […] The remaining pig liver was cut into 10-g pieces and wrapped in aluminum foil and stored at −80° C. The homogenates from the 8 samples were pooled and centrifuged at 13,000×g for 20 minutes at 4° C. to remove crude debris and the supernatant was further centrifuged at 100,000×g for 70 minutes at 4° C. The microsomal pellets were resuspended into 50 mls of 150 mM KH2PO4/1 mM DTT (pH 7.4) and 1 mL aliquots were stored at −80° C. In vitro 4-hydroxylase activity assay: All procedures were carried out under minimal light in order to prevent degradation of the retinoid samples. The ATRA 4-hydroxylase assay can be described briefly as follows: 100-150 μg of pig liver microsomal protein in 150 mM KH2PO4 was incubated at 37° C. in the presence of radiolabeled ATRA and 5 mM NADPH for 90 min. The final ATRA concentration was 1 μM, as a combination of [20-Methyl-^3H]ATRA and unlabeled ATRA. Initially radiolabeled ATRA was used to assist in validating the method. Once retention times of retinoid metabolites were identified unlabeled ATRA was used for screening. Compounds tested as possible competitive substrates were added to the assay 10 min prior to the addition of ATRA. Ethanol, containing 0.1% butylated hydroxytoluene (BHT) as an antioxidant, was used to stop the reactions. For recovery of ATRA the pH of reactions were adjusted to 3.0 before extraction with 0.1N HCl. Retinoids were extracted from the protein aqueous phase with 4 mls hexane, 1 ml 100 μg/ml BHT in water (pH 3). An additional 4 mls of hexane (pH 3) was used for a second extraction. The organic extractions were pooled, evaporated to dryness using a speed vac, and resuspended in 62.5 μl acetonitrile containing 1 mg/ml BHT. Samples were analyzed by HPLC. […] Mobile phases used for gradient elution of retinoids were those of Duell et al., J. Clin. Invest. […] Mobile phase A was acetonitrile:0.02 M ammonium acetate:acetic acid (1:1:0.01) and mobile phase B was acetonitrile:0.2M ammonium acetate;acetic acid (19:1:0.008). […] Because of the sensitivity limitations of the β-RAM spectrometer, it was not used to quantitate peak areas but rather to confirm ATRA and ATRA 4-hydroxylase activity. Calculated peaks areas (using Millenium software—Waters Corp.) of ATRA and ATRA metabolites were used to quantify relative activity levels.

CYP3A4 = CYP3A4 (Homo sapiens, UniProt P08684); assay: In vitro CYP/CYP3A4 inhibition assay (P450-GLO Assay kit, Promega)
CYP3A4, sequence (P08684 whole entry): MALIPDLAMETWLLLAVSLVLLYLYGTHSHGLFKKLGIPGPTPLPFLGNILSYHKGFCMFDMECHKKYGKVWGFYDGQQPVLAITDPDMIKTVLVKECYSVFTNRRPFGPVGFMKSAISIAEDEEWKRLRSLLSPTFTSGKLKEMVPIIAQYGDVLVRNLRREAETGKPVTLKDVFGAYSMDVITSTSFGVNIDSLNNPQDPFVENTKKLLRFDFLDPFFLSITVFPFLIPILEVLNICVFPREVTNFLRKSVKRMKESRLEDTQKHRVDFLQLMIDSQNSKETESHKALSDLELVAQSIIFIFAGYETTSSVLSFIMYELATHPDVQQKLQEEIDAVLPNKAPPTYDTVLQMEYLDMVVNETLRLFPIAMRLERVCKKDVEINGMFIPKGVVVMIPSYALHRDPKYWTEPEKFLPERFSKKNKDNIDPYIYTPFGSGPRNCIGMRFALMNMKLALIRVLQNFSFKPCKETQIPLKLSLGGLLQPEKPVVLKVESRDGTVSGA
Description: The metabolism of retinoic acid and vitamin D in the skin is incompletely understood, but there is evidence for the involvement of CYP26A1, CYP3A4 and CYP2C8 in catalyzing the 4-hydroxylation of all-trans RA to 4-hydroxy-RA. It is believed, without being limited by theory, that CYP3A4 may be particularly important for ATRA metabolism in the skin. This is because CYP3A4 is expressed in skin, involved in RA metabolism, a CYP with one of the broadest substrate specificities of all of the known CYPs and available as a human recombinant protein in a commercial kit. Thus, a commercially available CYP3A4 assay was used as a surrogate to predict RAMBA potential in the skin.
The commercially available P450-GLO™ Assay kit (Promega Corporation, Madison Wis.) was used to screen various compounds for potential CYP activity, specifically CYP3A4A inhibition activity. CYP3A4A is thought to be among the primary CYP isoforms responsible for retinoic acid metabolism in the skin.
The commercially available P450-GLO™ Assay kit (Promega Corporation, Madison Wis.) was used to screen various compounds for potential CYP activity, specifically CYP3A4A inhibition activity. CYP3A4A is thought to be one of the primary CYP isoforms responsible for retinoic acid metabolism in the skin.

[2] = system: mechanically-induced skin inflammation (shaving); assay: Method of treatment: shaving cream and leave-on skin cream applied to facial and neck regions; format: in vivo, human; details: 0.55% by weight in shaving cream before and leave-on cream after shaving, topical, 8 weeks
Description: A test subject topically applies a shaving cream composition comprising 0.55% 1-phenylimidazole, by weight in a vehicle, to the facial and neck regions prior to shaving. A leave-on skin cream comprising 0.55% 1-phenylimidazole, by weight in a vehicle, is applied to the same facial and neck regions after shaving.

[3] = read-out: IC50 (μM), in vitro 4-hydroxylase inhibition assay, pig liver microsomes, 1 μM ATRA, 5 mM NADPH, 37° C.
[4] = IC50 (uM), CYP3A4 inhibition, P450-GLO Assay kit, human recombinant CYP3A4
[5] = P450-GLO Assay kit, human recombinant CYP3A4
[6] = read-out: IC50 (uM), CYP3A4 inhibition, P450-GLO Assay kit, human recombinant CYP3A4

c1ccc(-c2ncc[nH]2)cc1 [2-phenylimidazole]
CYP inhibitory activity (in words), 4-hydroxylase assay ([1]; pig liver microsomes): lacked any significant inhibitory activity
IC50 [1, 3]: > 500 µM
IC50 (CYP3A4): > 10 µM
inhibitory activity in the CYP3A4 assay (in words) (CYP3A4): did not

Clc1ncnc2[nH]cnc12 [6-Chloropurine]
IC50 (CYP3A4; [4]): > 10 µM

Benomyl
Hit / no hit for inhibition of CYP3A4 (CYP3A4; [5]): no hit (weak/no inhibition (IC50 value>10 μM))
IC50 (CYP3A4; [6]): > 10 µM

c1coc(-c2nc3ccccc3[nH]2)c1 [Fuberidazole]
IC50 (CYP3A4): > 10 µM
Hit / no hit for inhibition of CYP3A4 (CYP3A4; human, recombinant enzyme): no hit >10 uM (key: hit: strong inhibition (IC50 value<10 μM); no hit: weak/no inhibition (IC50 value>10 μM))

CCc1nc(C)c[nH]1 [2-Ethyl-4-methylimidazole]
IC50 (CYP3A4; [4]): > 10 µM

Cc1nccn1Cc1ccccc1 [1-benzyl-2-methylimidazole]
IC50 ([1]; pig): 308 µM

c1ccc(-c2nc[nH]c2-c2ccccc2)cc1 [4,5-diphenylimidazole]
IC50 ([1]; pig): 100 µM

CCc1cccc(C)c1N(C(=O)CCl)C(C)COC (centres unmarked) [Metolachlor]
IC50 (CYP3A4): > 10 µM
Hit / no hit for inhibition of CYP3A4 (CYP3A4; [5]): no hit (weak/no inhibition (IC50 value>10 μM))

N[C@@H](Cc1c[nH]cn1)C(=O)O [Histidine]
IC50 (CYP3A4; [4]): > 10 µM

CCCCc1nc(C=O)c(Cl)[nH]1 [2-Butyl-4-chloro-5-formylimidazole]
IC50 (CYP3A4): > 10 µM

C=Cn1ccnc1 [1-Vinylimidazole]
IC50 (CYP3A4; [4]): > 10 µM

Clc1ccccc1-c1nc2ccccc2[nH]1 [2-(2-Chlorophenyl) benzimidazole]
IC50 (CYP3A4; [4]): > 10 µM

CC(=O)c1ccc(-n2ccnc2)cc1 [4′-(Imidazol-1yl) acetophenome]
IC50 (CYP3A4; [4]): 0.8 µM
Hit / no hit for inhibition of CYP3A4 (CYP3A4; human, recombinant enzyme): Hit

N=C(N)c1ccc(OCCCCCCOc2ccc(C(=N)N)cc2)cc1 [Hexamidine diisethionate]
IC50 (CYP3A4; [4]): > 10 µM

CC(=O)/C=C/C1=C(C)CCCC1(C)C [β-Ionone]
IC50 (CYP3A4; [4]): > 10 µM

c1ccc(-c2n[nH]cc2-c2ccnc3ccccc23)nc1 [LY-364947]
IC50 (CYP3A4): > 10 µM

O=C(n1ccnc1)n1ccnc1 [1′-1-Carbonylimidazole]
IC50 (CYP3A4; [4]): > 10 µM

NCCCn1ccnc1 [N-(3-Aminopropyl) imidazole]
IC50 (CYP3A4): > 10 µM

Cc1ncc[nH]1 [2-Methylimidazole]
IC50 (CYP3A4; [4]): > 10 µM

Piperine
Hit / no hit for inhibition of CYP3A4 (CYP3A4; [5]): Hit
IC50 (CYP3A4; [6]): ~10 µM

c1ccc(-n2ccnc2)cc1 [1-phenylimidazole]
CYP inhibitory activity (in words), 4-hydroxylase assay ([1]; pig liver microsomes): IC50 values in the same range as climbazole
IC50 [1, 3]: 52.5 µM
inhibitory activity in the CYP3A4 assay (in words) (CYP3A4; P450-GLO Assay kit): showed inhibitory activity
Hit / no hit for inhibition of CYP3A4 (CYP3A4; [5]): Hit
IC50 (CYP3A4; human, recombinant enzyme): 1 µM
facial and neck skin inflammation noted by the subject [2]: significantly less inflamed

CCc1ncc[nH]1 [2-Ethylimidazole]
IC50 (CYP3A4): > 10 µM

CC(=O)n1ccnc1 [1-Acetylimidazole]
IC50 (CYP3A4; [4]): > 10 µM

Glutamylamidoethyl imidazole
Hit / no hit for inhibition of CYP3A4 (CYP3A4; [5]): no hit (weak/no inhibition (IC50 value>10 μM))
IC50 (CYP3A4; [6]): > 10 µM

CC1=N[C@H](C(=O)O)CCN1 [Ectoine]
IC50 (CYP3A4; [4]): > 10 µM

c1ccc(-c2c[nH]cn2)cc1 [4-phenylimidazole]
CYP inhibitory activity (in words), 4-hydroxylase assay ([1]; pig liver microsomes): IC50 values in the same range as climbazole

c1ccc2[nH]cnc2c1 [Benzimidazole]
IC50 (CYP3A4; [4]): > 10 µM

Cc1cccc(C)c1N(Cn1cccn1)C(=O)CCl [Metazachlor]
IC50 (CYP3A4): > 10 µM
Hit / no hit for inhibition of CYP3A4 (CYP3A4; human, recombinant enzyme): no hit >10UM (key: hit: strong inhibition (IC50 value<10 μM); no hit: weak/no inhibition (IC50 value>10 μM))

Nc1nc[nH]n1 [Amitrol]
IC50 (CYP3A4): > 10 µM

c1ccc(Cn2ccnc2)cc1 [1-benzylimidazole]
IC50 [1, 3]: 77.5 µM

Cc1ccc2cc3c(ccc4ccccc43)c3c2c1CC3 [Methylcholanthrene]
Hit / no hit for inhibition of CYP3A4 (CYP3A4; [5]): Near Hit

Cn1ccnc1 [1-Methylimidazole]
IC50 (CYP3A4): > 10 µM

CC(C)(C(=O)c1cccnc1)c1cccnc1 [Metyrapone]
IC50 (CYP3A4): 3 µM
Hit / no hit for inhibition of CYP3A4 (CYP3A4; human, recombinant enzyme): Hit

Clc1ccc(COC(Cn2ccnc2)c2ccc(Cl)cc2Cl)c(Cl)c1 (centres unmarked) [Miconazole]
Hit / no hit for inhibition of CYP3A4 (CYP3A4; human, recombinant enzyme): Hit 5 uM
